The text below walks through data of US20160045505A1, “COMPOUNDS AND COMPOSITIONS FOR THE TREATMENT OF PARASITIC DISEASES” (NOVARTIS AG, priority 2013, published 2016).

The test system of series [1] is Leishmania donovani axenic amastigote parasites. Nature of the series: Leishmania donovani axenic amastigote proliferation assay (Cell TiterGlo luminescence, 2 day incubation). The series is classed as cell-based. The following applies: Leishmania donovani, L. donovani axenic amastigotes; read-out: L. donovani amastigotes EC50. A general note: Cellular ATP, detected with luciferase, serves as a proxy for viable cell number.

In series [2] the test system is L. donovani HU3 strain in mouse peritoneal macrophages. Nature of the series: Assay for proliferation of Leishmania parasites in infected mouse peritoneal macrophages (SybrGreen staining, high-content imaging, 5 days). The following applies: Leishmania donovani, Peritoneal macrophage, L. donovani in mouse peritoneal macrophages; read-out: L. donovani Macrophage EC50. The series is classed as cell-based, Leishmania donovani.

Series [3] relates to Trypanosoma brucei Lister 427 strain, bloodstream form. The series is described as follows: Assay for proliferation of kinetoplastid parasite Trypanosoma brucei (Cell Titer Glo, 48 hours). The series is classed as cell-based. To be noted: Trypanosoma brucei, T. brucei Lister 427 bloodstream form; read-out: T. brucei EC50. In short, it runs like this: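 Bloodstream-form T. brucei Lister 427 in HMI-9 medium was exposed to compound (DMSO vehicle) for 48 hours at 37° C, 5% CO2. Parasite growth was read as ATP by CellTiter-Glo luminescence, with EC50 calculated from percent inhibition.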

Series [4] deals with Trypanosoma cruzi amastigotes (Tulahuen strain expressing Lac-Z) cultured in 3T3 fibroblast cells. Nature of the series: microbe, parasite or virus in culture. The series is classed as cell-based. To be noted: Trypanosoma cruzi, TULAHUEN, Fibroblast, T. cruzi amastigotes in 3T3 fibroblast cells; read-out: T cruzi EC50.
For series [5] the following is noted: patients injected with Melarsoprol (Arsobal); cited from earlier work.

In general, EC50 refers to the concentration that produces a half-maximal response. Turning to `COC(=O)COc1cnc2nc(-c3cc(NC(=O)c4oc(C)nc4C)ccc3F)cn2c1` [Compound 609], the EC50 is 835 nM in series [1], 5970 nM in series [2], 1050 nM in series [3] and more than 20000 nM in series [4].

For `Cc1nc(C)c(C(=O)Nc2ccc(F)c(-c3cn4cc(OCC5CC5)cnc4n3)c2)o1` [Compound 610], the 50% effective concentration (EC50) in series [1] came to 121 nM; in series [2], 269 nM; in series [3], 150 nM; in series [4], 109 nM.

For `Cc1nc(C)c(C(=O)Nc2ccc(F)c(-c3cn4cc(OCc5ccccn5)cnc4n3)c2)o1` [Compound 611], the EC50 in series [1] was 645 nM; in series [2], 1550 nM; in series [3], 611 nM; in series [4], 1130 nM.

For the molecule `Cc1nc(C)c(C(=O)N(c2ccc(F)c(-c3cn4cc(OC(C)C)cnc4n3)c2)C(C)C)o1` [Compound 612], the 50% effective concentration (EC50) is 9400 nM in series [1], 1060 nM in series [2], 12400 nM in series [3] and 3810 nM in series [4].

In the case of `Nc1nc(N)nc(Nc2ccc([As]3SCC(CO)S3)cc2)n1` (stereo not drawn) [Melarsoprol], in series [5], the “patients who developed reactive encephalopathy (convulsions, progressive coma, or psychotic reactions)” value is 3-10 % of patients and the “reactive encephalopathy cases that result in death” value is 10-70 % of such cases.
